We go through 12 compounds from US8470820B2, “Nitrogen-containing heteroaryl derivatives” (Hoffman-La Roche Inc., priority 2010, dated 2013).

One test deals with human PDE10A (Homo sapiens (Human), UniProt Q9Y233). Nature of the test: human PDE10A full length Scintillation Proximity Assay (SPA). Format: biochemical. The note with it: 50 nM cGMP and 50 nM [3H]-cGMP, 20 minutes at room temperature, read-out: PDE10A inhibition IC50. As for the experimental part:
The following test was carried out in order to determine the activity of the compounds of the present invention. PDE10 activity of the compounds of the present invention was determined using a Scintillation Proximity Assay (SPA)-based method similar to the one previously described (Fawcett, L. et al., Proc Natl Acad Sci USA (2000) 97(7):3702-3707).
The human PDE10A full length assay was performed in 96-well micro titer plates. The reaction mixture of 50 μl contained 20 mM HEPES pH=7.5/10 mM MgCl2/0.05 mg/ml BSA (Sigma cat. # A-7906), 50 nM cGMP (Sigma, cat. # G6129) and 50 nM [^3H]-cGMP (GE Healthcare, cat. # TRK392 S.A. 13.2Ci/mmol), 3.75 ng/well PDE10A enzyme (Enzo Life Science, Lausen, Switzerland cat # SE-534) with or without a specific test compound. A range of concentrations of the potential inhibitor was used to generate data for calculating the concentration of inhibitor resulting in 50% of the effect (e.g. IC50, the concentration of the competitor inhibiting PDE10A activity by 50%). Non-specific activity was tested without the enzyme. The reaction was initiated by the addition of the substrate solution (cGMP and [^3H]-cGMP) and allowed to progress for 20 minutes at room temperature. The reaction was terminated by adding 25 μA of YSi-SPA scintillation beads (GE Healthcare, cat. # RPNQ0150) in 18 mM zinc sulphate solution (stop reagent). After 1 h under shaking, the plate was centrifuged one minute at 170 g to allow beads to settle. Afterwards, radioactive counts were measured on a Perkin Elmer TopCount Scintillation plate reader.
A general note: Scintillation proximity formats need no separation of bound from free tracer.

Another test has as its system rats. The conditions noted are these: sub-chronic treatment with PCP (NMDA receptor hypofunction paradigm); cited from earlier work.

Chain of human PDE10A (Q9Y233 other isoform, or with tags, fused parts or gaps): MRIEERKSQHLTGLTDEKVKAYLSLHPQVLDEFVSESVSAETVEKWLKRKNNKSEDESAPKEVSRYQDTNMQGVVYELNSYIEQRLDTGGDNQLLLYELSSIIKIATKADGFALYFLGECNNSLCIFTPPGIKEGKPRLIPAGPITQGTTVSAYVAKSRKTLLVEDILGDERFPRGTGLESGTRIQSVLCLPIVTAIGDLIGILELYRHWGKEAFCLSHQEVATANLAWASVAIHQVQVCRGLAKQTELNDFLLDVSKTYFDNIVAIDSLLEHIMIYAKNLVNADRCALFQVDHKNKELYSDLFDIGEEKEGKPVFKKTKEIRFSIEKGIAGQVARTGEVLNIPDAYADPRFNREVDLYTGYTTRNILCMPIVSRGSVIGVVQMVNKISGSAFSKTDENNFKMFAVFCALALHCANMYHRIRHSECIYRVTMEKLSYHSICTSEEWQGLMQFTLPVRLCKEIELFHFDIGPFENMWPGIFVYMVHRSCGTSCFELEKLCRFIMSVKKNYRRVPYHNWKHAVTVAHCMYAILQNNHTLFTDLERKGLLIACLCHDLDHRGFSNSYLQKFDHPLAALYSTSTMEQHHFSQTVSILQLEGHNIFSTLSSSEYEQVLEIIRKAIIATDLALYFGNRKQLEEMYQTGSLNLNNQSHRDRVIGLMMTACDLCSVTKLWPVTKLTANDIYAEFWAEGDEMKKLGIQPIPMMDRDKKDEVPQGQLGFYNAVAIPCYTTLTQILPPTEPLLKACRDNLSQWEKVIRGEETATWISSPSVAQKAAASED

The term IC50 denotes the concentration at which inhibition is half-maximal. With `Cn1nc(-c2cccc(Cl)n2)cc1NC(=O)c1nc(C2CC2)ccc1Nc1cncnc1` [Example 41, 6-Cyclopropyl-3-(pyrimidin-5-ylamino)-pyridine-2-carboxylic acid [5-(6-chloro-pyridin-2-yl)-2-methyl-2H-pyrazol-3-yl]-amide], the IC50 on human PDE10A was 3 nM.

As for `O=C(Nc1cnn(-c2ccccn2)c1)c1nc(C2CC2)ccc1Nc1cncnc1` [Example 65, 6-Cyclopropyl-3-(pyrimidin-5-ylamino)-pyridine-2-carboxylic acid (1-pyridin-2-yl-1H-pyrazol-4-yl)-amide], the IC50 on human PDE10A was 55 nM.

For the compound `O=C(Nc1cc(-c2ccccn2)nn1CC(F)(F)F)c1nc(C2CC2)ccc1Nc1cncnc1` [Example 22, 6-Cyclopropyl-3-(pyrimidin-5-ylamino)-pyridine-2-carboxylic acid [5-pyridin-2-yl-2-(2,2,2-trifluoro-ethyl)-2H-pyrazol-3-yl]-amide], at human PDE10A, the half-maximal inhibitory concentration (IC50) amounted to 2 nM.

As to `CC(C)Cc1ncc(Nc2cncnc2)c(C(=O)Nc2cc(-c3ccccn3)nn2C)n1` [Example 61, 2-Isobutyl-5-(pyrimidin-5-ylamino)-pyrimidine-4-carboxylic acid (2-methyl-5-pyridin-2-yl-2H-pyrazol-3-yl)-amide], the IC50 on human PDE10A came out at 28 nM.

As to `Cc1cnc(Nc2cncnc2)c(C(=O)Nc2cc(-c3ccccn3)nn2CCO)n1` [Example 36, 6-Methyl-3-(pyrimidin-5-ylamino)-pyrazine-2-carboxylic acid [2-(2-hydroxy-ethyl)-5-pyridin-2-yl-2H-pyrazol-3-yl]-amide], the IC50 at human PDE10A was 4 nM.

For `CN(C)CCn1nc(-c2ccccn2)cc1NC(=O)c1nc(C2CC2)ccc1Nc1cncnc1` [Example 12, 6-Cyclopropyl-3-(pyrimidin-5-ylamino)-pyridine-2-carboxylic acid [2-(2-dimethylamino-ethyl)-5-pyridin-2-yl-2H-pyrazol-3-yl]-amide], the concentration for half-maximal inhibition (IC50) on human PDE10A worked out at 1 nM.

For the compound `COCc1ncc(Nc2cncnc2)c(C(=O)Nc2cc(-c3ccccn3)nn2C)n1` [Example 13, 2-Methoxymethyl-5-(pyrimidin-5-ylamino)-pyrimidine-4-carboxylic acid (2-methyl-5-pyridin-2-yl-2H-pyrazol-3-yl)-amide], the half-inhibitory concentration (IC50) at human PDE10A turned out to be 256 nM.

On to `O=C(Nc1cc(-c2ccccn2)nn1C1CCOCC1)c1nc(C2CC2)ccc1Nc1cncnc1` [Example 20, 6-Cyclopropyl-3-(pyrimidin-5-ylamino)-pyridine-2-carboxylic acid [5-pyridin-2-yl-2-(tetrahydro-pyran-4-yl)-2H-pyrazol-3-yl]-amide], for which the concentration for half-maximal inhibition (IC50) at human PDE10A is 1 nM.

`O=C(Nc1cc(-c2ccccn2)nn1Cc1ccccc1)c1nc(C2CC2)ccc1Nc1cncnc1` [Example 29, 6-Cyclopropyl-3-(pyrimidin-5-ylamino)-pyridine-2-carboxylic acid (2-benzyl-5-pyridin-2-yl-2H-pyrazol-3-yl)-amide]: the IC50 at human PDE10A turned out to be 2 nM.

`Cn1cncc1Cn1nc(-c2ccccn2)cc1NC(=O)c1nc(C2CC2)ccc1Nc1cncnc1` [Example 37, 6-Cyclopropyl-3-(pyrimidin-5-ylamino)-pyridine-2-carboxylic acid [2-(3-methyl-3H-imidazol-4-ylmethyl)-5-pyridin-2-yl-2H-pyrazol-3-yl]-amide]: the IC50 on human PDE10A was found to be 2 nM.

In the case of `COc1ccc(Cc2nccc3cc(OC)c(OC)cc23)cc1OC` [papaverine, Papaverine], the “effect on deficits in extra-dimensional shift learning” value with rats is “attenuate the deficits in the extra-dimensional shift learning”.

Regarding `O=C(Nc1cn(-c2ccccn2)cn1)c1nc(C2CC2)ccc1Nc1cncnc1` [Example 52, 6-Cyclopropyl-3-(pyrimidin-5-ylamino)-pyridine-2-carboxylic acid (1-pyridin-2-yl-1H-imidazol-4-yl)-amide], the 50% inhibitory concentration (IC50) on human PDE10A is 33 nM.
